≈ marks a conversion by molar mass, not a printed value.
Tests used:
[1] = tested on: Staphylococcus aureus; assay: Concentration required to reduce Minimum inhibitory concentration (MIC) of Norfloxacin against Staphylococcus aureus 1199B by 4 folds; assay type: functional, organism-based
[2] = tested on: Staphylococcus aureus; assay: Minimum inhibitory concentration (MIC) against Staphylococcus aureus 1199B; Range 50 - 6.3 ug/mL; assay type: functional
[3] = tested on: Staphylococcus aureus; assay: Minimum inhibitory concentration (MIC) against Staphylococcus aureus K2068; Range 12.5 1.6 ug/mL; assay type: functional
[4] = tested on: Staphylococcus aureus; assay: Percent inhibition of EtBr efflux against Staphylococcus aureus 1199B at 50 concentration; assay type: functional
[5] = tested on: Staphylococcus aureus; assay: Concentration required to reduce Minimum inhibitory concentration (MIC) of Norfloxacin against Staphylococcus aureus 1199B by 8 folds; assay type: functional, organism-based

Work on `COC(=O)[C@H]1[C@H]2C[C@@H]3c4[nH]c5cc(OC)ccc5c4CCN3C[C@H]2C[C@@H](OC(=O)c2cc(OC)c(OC)c(OC)c2)[C@@H]1OC` yielded a Concentration [1] of 20 µg/mL.

Compound `CCn1cc(C(=O)O)c(=O)c2cc(F)c(N3CCNCC3)cc21` [NORFLOXACIN] has an MIC [2] of 50 µg/mL (≈ 157 µM) and an MIC [3] of 12.5 µg/mL (≈ 39.1 µM).

`CN1CC[C@@H](c2ccc(F)cc2)[C@H](COc2ccc3c(c2)OCO3)C1` showed an Inhibition [4] of ~50%.

`Fc1ccc([C@H]2CCNC[C@@H]2COc2ccc3c(c2)OCO3)cc1` showed a Concentration [5] of 20 µg/mL.

Work on `Fc1ccc([C@@H]2CCNC[C@H]2COc2ccc3c(c2)OCO3)cc1` yielded a Concentration [5] of 25 µg/mL.

Reference: ChEMBL document CHEMBL1146781, “Structural differences between paroxetine and femoxetine responsible for differential inhibition of Staphylococcus aureus efflux pumps” (2004)
